Data published in patent publication US4292249A, “25-Hydroxy-24-oxocholestane derivatives and preparation thereof” (priority 1979, dated 1981).

Experiments:
[1] = system: calcium absorption at the intestinal tube; assay: Effect to promote calcium absorption from the intestinal tract (everted gut sac method); type: in vivo, Wistar male rats; settings: vitamin D-deficient rats, 250 ng/head intravenously, measured 4, 8, 24 and 48 hour later
Description: They were killed 4 hour, 8 hour, 24 hour and 48 hour later, and calcium absorption at the intestinal tube was measured by the everted gut sac method [see Martin, D. L. and Deluca, H. F., Amer, J. Physiol.

[2] = molecular target: T1, 1α,25-dihydroxy cholecalciferol-receptor in the chick's intestinal tube (Gallus gallus, UniProt O42392); assay: Combination (binding) with the 1α,25-dihydroxy cholecalciferol-receptor, competitive displacement
T1 construct: 1α,25-dihydroxy cholecalciferol-receptor in the chick's intestinal tube; from tissue; host or cells: chick intestine
T1 sequence (O42392 1-451): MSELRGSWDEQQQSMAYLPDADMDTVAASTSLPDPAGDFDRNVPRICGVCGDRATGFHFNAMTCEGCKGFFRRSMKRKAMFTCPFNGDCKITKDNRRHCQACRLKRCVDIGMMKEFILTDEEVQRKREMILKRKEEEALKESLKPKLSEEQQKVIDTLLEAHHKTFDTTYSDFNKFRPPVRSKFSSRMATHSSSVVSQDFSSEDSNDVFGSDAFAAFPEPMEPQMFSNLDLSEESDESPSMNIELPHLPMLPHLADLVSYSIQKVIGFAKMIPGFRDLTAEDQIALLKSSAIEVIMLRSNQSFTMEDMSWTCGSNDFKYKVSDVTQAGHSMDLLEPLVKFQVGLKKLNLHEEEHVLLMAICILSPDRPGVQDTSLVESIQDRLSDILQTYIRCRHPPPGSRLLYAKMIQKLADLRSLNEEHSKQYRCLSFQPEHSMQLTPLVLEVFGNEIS

## C=C1CC[C@H](O)C/C1=C/C=C1\CCC[C@]2(C)[C@@H]([C@H](C)CCC(=O)C(C)(C)O)CC[C@@H]12 [25-hydroxy-24-oxo-cholecalciferol, 25-hydroxy-24-oxocholecalciferol]
[1]
  time after administration at which the effect on intestinal calcium absorption showed: about 4 hours
  time for which the effect on intestinal calcium absorption continued: 44 h

## C=C1/C(=C\C=C2/CCC[C@]3(C)[C@@H]([C@H](C)CCC(=O)C(C)(C)O)CC[C@@H]23)C[C@@H](O)C[C@@H]1O [1α,25-dihydroxy-24-oxo-cholecarciferol, 1α,25-dihydroxy-24-oxo cholecalciferol]
[2]; chick intestinal receptor
  50% Displacement: 138 pg
[2]; relative to 1α,25-dihydroxy cholecalciferol = 1
  Molar ratio: 3
